Reference: US11345725B2, “Bis-thioether stapled peptides as inhibitors of PRC2 function” (Research Foundation of the City University of New York, priority 2019, dated 2022)
Entries after “also recorded” stand apart in the source; their conditions may differ. Starred links: 1 amine or outer side, 2 acyl side, 3 side chain; linkers in the order of their positions; H or OH if unused. Positions of bridges follow the written chain, without caps; N, C: chain ends. Residues, ends and D or L forms follow the SMILES beside them. X1 = C(C[*:1])C[*:2]

Tests used:
[1] = molecular target: T1, α-chymotrypsin from bovine pancreas type II (Bos taurus, UniProt P00766); assay: Chymotrypsin stability test; type: in vitro ADME; conditions: HPLC and LC/MS monitoring
T1 construct: freshly prepared α-chymotrypsin from bovine pancreas type II, ≥40 U/mg; purchased; host or cells: bovine pancreas
Experimental: (§1) Assays were performed using freshly prepared α-chymotrypsin from bovine pancreas type II, ≥40 U/mg. The enzyme was initially reconstituted in HCl […] (1 μg/μL), and kept in ice until used. Peptides stock solutions were prepared in assay buffer (50 mM Tris.HCl pH=8.0, 560 μM calcium chloride, 0.1% Tween-20) containing <3% of DMSO. The reactions were performed at a 200 μL scale, in assay buffer, at final concentrations of 50 μM for peptide and […] for α-chymotrypsin (10 μL from the reconstitution solution). The mixture was incubated at 37° C. and aliquots were withdrawn in portions of 25 μL at different time points for analysis. The removed aliquots were mixed with 25 μL of water 1% TFA, and then treated with a column for detergent removal following the manufacturer's protocol (Pierce, Catalog #:87776). The rate of peptide proteolysis was monitored by HPLC and HPLC-MS analysis. Control experiments were carried out under the same conditions but using BSA instead of α-chymotrypsin.

α-chymotrypsin = molecular target: T2, α-chymotrypsin (Bos taurus, UniProt P00766); assay: Chymotrypsin stability test; type: in vitro ADME, bovine; conditions: bovine, pH 8; read-out: t1/2 chymotrypsin stability assay (converted)
T2 construct: freshly prepared α-chymotrypsin from bovine pancreas type II, ≥40 U/mg; purchased; host or cells: bovine pancreas
Experimental: as §1

SMILES: CC[C@H](C)[C@H](NC(=O)[C@H](CCCCN)NC(=O)[C@@H]1CSCCCSC[C@H](NC(=O)[C@@H](NC(C)=O)C(C)C)C(=O)N[C@@H](CC(N)=O)C(=O)N[C@@H](CCC(=O)O)C(=O)N[C@@H](CCC(=O)O)C(=O)N1)C(=O)N[C@@H](Cc1c[nH]c2ccccc12)C(=O)N[C@@H](CCCCN)C(=O)N[C@@H](CCCCN)C(=O)N[C@@H](CC(N)=O)C(=O)N[C@H](C(=O)N1CCC[C@H]1C(=O)N[C@@H](Cc1ccccc1)C(=O)N[C@@H](CC(C)C)C(N)=O)[C@@H](C)O [24 (GN-Z24), V[CNEEC](CH2)3KIWKKNTPFL] (Ac-VCNEECKIWKKNTPFL-NH2; linker 2-6 via X1; C-terminus assumed)
- stability to chymotrypsin proteolysis [1]: enhanced stability; also recorded: marked protection
- half-life at 50 μM (α-chymotrypsin): 20.5 h
